# Source: patent US20250042879A1, “HETEROCYCLIC SUBSTITUTED 1,3,4-THIADIAZOLE AND PYRIDAZINE COMPOUNDS AND METHODS OF USING THE SAME” (Rgenta Therapeutics, Inc., priority 2021, published 2025)
# Where a name gives a salt, the structure may show the parent alone.
# Tested on: HTT
# Assay: Mini-gene reporter assay-HTT (firefly luciferase, exon inclusion)
# Format: cell-based
# Settings: Homo sapiens; HTT mini-gene firefly luciferase reporter transiently transfected into HEK293 cells
# Source text: Mini-gene reporter constructs for each target site were constructed by first PCR amplifying the region-of-interest including the sequence of the alternatively skipped, sequences of the immediate upstream and downstream introns, and sequences of the immediate upstream and downstream exons. Then the 3′end of the amplified sequence was ligated to a firefly luciferase reporter gene and cloned into the pcDNA3.1 vector backbone. The final reporter construct was transiently transfected into HEK293 cells using Lipofectamine 3000 transfection reagents. Compounds that can induce the inclusion of the skipped exon in the reporter construct would increase the reporter firefly luciferase activity.
# Test compounds were diluted in duplicates and dispensed into an assay plate. Transient mini-gene reporter cell line stock was resuspended and dispensed into the assay plate. Assay plates were then centrifuged and incubated. A luciferase reagent (e.g. ONE-Glo firefly luciferase reagent from Promega®) was added to the assay plate and the luminescence (RLU) signals recorded. EC50 values were determined by curve fitting in Levenberg-Marquardt algorithm.
row,EC50 [nM],Structure (SMILES)
1,50 to 500,"Cc1cn2cc(-c3ccc(-c4ccc(C5CNC5)nn4)c(O)c3)cc(F)c2n1 [Compound 1, 2-(6-(azetidin-3-yl)pyridazin-3-yl)-5-(8-fluoro-2-methylimidazo[1,2-a]pyridin-6-yl)phenol]"
2,50 to 500,"Cc1cn2cc(-c3ccc(-c4ccc(C5CNC5)nn4)c(O)c3)ccc2n1 [Compound 2, 2-(6-(azetidin-3-yl)pyridazin-3-yl)-5-(2-methylimidazo[1,2-a]pyridin-6-yl)phenol]"
3,500 to 1000,"Cc1cc(-c2ccc(-c3ccc(C4CNC4)nn3)c(O)c2)cc2cn(C)nc12 [Compound 6, 2-(6-(azetidin-3-yl)pyridazin-3-yl)-5-(2,7-dimethyl-2H-indazol-5-yl)phenol hydrochloride]"
4,≥ 1000,"Cc1cn2cc(-c3cc(O)c(-c4ccc(C5CNC5)nn4)cc3F)cc(F)c2n1 [Compound 8, 2-[6-(azetidin-3-yl)pyridazin-3-yl]-4-fluoro-5-{8-fluoro-2-methylimidazo[1,2-a]pyridin-6-yl}phenol]"
5,50 to 500,"Cc1cn2cc(-c3ccc(-c4ccc(C5CNC5)nn4)c(O)c3)nc(C)c2n1 [Compound 9, 2-[6-(azetidin-3-yl)pyridazin-3-yl]-5-{2,8-dimethylimidazo[1,2-a]pyrazin-6-yl}phenol]"
6,< 50,"Cc1cn2cc(-c3ccc(-c4ccc(C5CNC5)nn4)c(O)c3F)cc(F)c2n1 [Compound 10, 6-[6-(azetidin-3-yl)pyridazin-3-yl]-2-fluoro-3-{8-fluoro-2-methylimidazo[1,2-a]pyridin-6-yl}phenol]"
7,500 to 1000,"Cc1cn2cc(-c3cc(O)c(-c4ccc(C5CNC5)nn4)c(F)c3)cc(F)c2n1 [Compound 11, 2-[6-(azetidin-3-yl)pyridazin-3-yl]-3-fluoro-5-{8-fluoro-2-methylimidazo[1,2-a]pyridin-6-yl}phenol]"
8,≥ 1000,"Cc1cc2cc(-c3ccc(-c4ccc(C5CNC5)nn4)c(O)c3)ccn2n1 [Compound 13, 2-[6-(azetidin-3-yl)pyridazin-3-yl]-5-{2-methylpyrazolo[1,5-a]pyridin-5-yl}phenol]"
9,500 to 1000,"Cc1cn2cc(-c3ccc(-c4ccc(C5CN(C)C5)nn4)c(O)c3)ccc2n1 [Compound 14, 2-[6-(1-methylazetidin-3-yl)pyridazin-3-yl]-5-{2-methylimidazo[1,2-a]pyridin-6-yl}phenol]"
10,50 to 500,"Cn1cc2cc(-c3ccc(-c4ccc(C5CNC5)nn4)c(O)c3)ccc2n1 [Compound 16, 2-[6-(azetidin-3-yl)pyridazin-3-yl]-5-(2-methyl-2H-indazol-5-yl)phenol]"
11,50 to 500,"CCN1CC(c2ccc(-c3ccc(-c4cc(F)c5nc(C)cn5c4)cc3O)nn2)C1 [Compound 17, 2-[6-(1-ethylazetidin-3-yl)pyridazin-3-yl]-5-{8-fluoro-2-methylimidazo[1,2-a]pyridin-6-yl}phenol]"
12,500 to 1000,"Cc1cn2cc(-c3ccc(-c4ccc(C5CN(C6CCOCC6)C5)nn4)c(O)c3)cc(F)c2n1 [Compound 18, 5-{8-fluoro-2-methylimidazo[1,2-a]pyridin-6-yl}-2-{6-[1-(oxan-4-yl)azetidin-3-yl]pyridazin-3-yl}phenol]"
13,≥ 1000,"CN1CC(c2ccc(-c3ccc(-c4ccc5nn(C)cc5c4)cc3O)nn2)C1 [Compound 19, 5-(2-methyl-2H-indazol-5-yl)-2-[6-(1-methylazetidin-3-yl)pyridazin-3-yl]phenol]"
14,500 to 1000,"Cc1cn2cc(-c3ccc(-c4ccc(C5CN(C)C5)nn4)c(O)c3)nc(C)c2n1 [Compound 20, 5-{2,8-dimethylimidazo[1,2-a]pyrazin-6-yl}-2-[6-(1-methylazetidin-3-yl)pyridazin-3-yl]phenol]"
15,≥ 1000,"Cc1cc2cc(-c3ccc(-c4ccc(C5CN(C)C5)nn4)c(O)c3)ccn2n1 [Compound 21, 2-[6-(1-methylazetidin-3-yl)pyridazin-3-yl]-5-{2-methylpyrazolo[1,5-a]pyridin-5-yl}phenol]"
16,50 to 500,"CCN1CC(c2ccc(-c3ccc(-c4ccc5nn(C)cc5c4)cc3O)nn2)C1 [Compound 24, 2-[6-(1-ethylazetidin-3-yl)pyridazin-3-yl]-5-(2-methyl-2H-indazol-5-yl)phenol]"
17,≥ 1000,"CCN1CC(c2ccc(-c3ccc(-c4ccn5nc(C)cc5c4)cc3O)nn2)C1 [Compound 25, 2-[6-(1-ethylazetidin-3-yl)pyridazin-3-yl]-5-{2-methylpyrazolo[1,5-a]pyridin-5-yl}phenol]"

row,EC50 [nM],Structure (SMILES)
1,50 to 500,"Cc1cc(-c2ccc(-c3ccc(C4CN(C)C4)nn3)c(O)c2)cc2cn(C)nc12 [Compound 27, 5-(2,7-dimethyl-2H-indazol-5-yl)-2-[6-(1-methylazetidin-3-yl)pyridazin-3-yl]phenol]"
2,500 to 1000,"Cc1cc2cc(-c3ccc(-c4ccc(C5CNC5)nn4)c(O)c3)cc(C)n2n1 [Compound 29, 2-[6-(azetidin-3-yl)pyridazin-3-yl]-5-{2,7-dimethylpyrazolo[1,5-a]pyridin-5-yl}phenol]"
3,≥ 1000,"Cc1cn2nc(-c3ccc(-c4ccc(C5CN(C)C5)nn4)c(O)c3)cc(C)c2n1 [Compound 30, 5-{2,8-dimethylimidazo[1,2-b]pyridazin-6-yl}-2-[6-(1-methylazetidin-3-yl)pyridazin-3-yl]phenol]"
4,500 to 1000,"Cc1cn2nc(-c3ccc(-c4ccc(C5CNC5)nn4)c(O)c3)ccc2n1 [Compound 31, 2-[6-(azetidin-3-yl)pyridazin-3-yl]-5-{2-methylimidazo[1,2-b]pyridazin-6-yl}phenol]"
5,≥ 1000,"CCN1CC(c2ccc(-c3ccc(-c4cn5cc(C)nc5c(C)n4)cc3O)nn2)C1 [Compound 32, 5-{2,8-dimethylimidazo[1,2-a]pyrazin-6-yl}-2-[6-(1-ethylazetidin-3-yl)pyridazin-3-yl]phenol]"
6,500 to 1000,"Cc1cn2cc(-c3ccc(-c4ccc(C5CNC5)nn4)c(O)c3)ncc2n1 [Compound 33, 2-[6-(azetidin-3-yl)pyridazin-3-yl]-5-{2-methylimidazo[1,2-a]pyrazin-6-yl}phenol]"
7,50 to 500,"CCN1CC(c2ccc(-c3ccc(-c4cc(C)c5nn(C)cc5c4)cc3O)nn2)C1 [Compound 34, 5-(2,7-dimethyl-2H-indazol-5-yl)-2-[6-(1-ethylazetidin-3-yl)pyridazin-3-yl]phenol]"
8,500 to 1000,"Cc1cn2cc(-c3ccc(-c4ccc(C5CN(C)C5)nn4)c(O)c3)cc(C)c2n1 [Compound 35, 5-{2,8-dimethylimidazo[1,2-a]pyridin-6-yl}-2-[6-(1-methylazetidin-3-yl)pyridazin-3-yl]phenol]"
9,50 to 500,"Cc1cn2nc(-c3ccc(-c4ccc(C5CN(C)C5)nn4)c(O)c3)ccc2n1 [Compound 37, 2-[6-(1-methylazetidin-3-yl)pyridazin-3-yl]-5-{2-methylimidazo[1,2-b]pyridazin-6-yl}phenol]"
10,50 to 500,"Cc1cn2cc(-c3ccc(-c4ccc(C5CN(C)C5)nn4)c(O)c3)ncc2n1 [Compound 39, 2-[6-(1-methylazetidin-3-yl)pyridazin-3-yl]-5-{2-methylimidazo[1,2-a]pyrazin-6-yl}phenol]"
11,500 to 1000,"Cc1cc2cc(-c3ccc(-c4ccc(C5CN(C)C5)nn4)c(O)c3)cc(C)n2n1 [Compound 40, 5-{2,7-dimethylpyrazolo[1,5-a]pyridin-5-yl}-2-[6-(1-methylazetidin-3-yl)pyridazin-3-yl]phenol]"
12,≥ 1000,"CCN1CC(c2ccc(-c3ccc(-c4cc(C)n5nc(C)cc5c4)cc3O)nn2)C1 [Compound 41, 5-{2,7-dimethylpyrazolo[1,5-a]pyridin-5-yl}-2-[6-(1-ethylazetidin-3-yl)pyridazin-3-yl]phenol]"
13,≥ 1000,"CCN1CC(c2ccc(-c3ccc(-c4cc(C)c5nc(C)cn5n4)cc3O)nn2)C1 [Compound 42, 5-{2,8-dimethylimidazo[1,2-b]pyridazin-6-yl}-2-[6-(1-ethylazetidin-3-yl)pyridazin-3-yl]phenol]"
14,500 to 1000,"CCN1CC(c2ccc(-c3ccc(-c4cn5cc(C)nc5cn4)cc3O)nn2)C1 [Compound 43, 2-[6-(1-ethylazetidin-3-yl)pyridazin-3-yl]-5-{2-methylimidazo[1,2-a]pyrazin-6-yl}phenol]"
15,500 to 1000,"Cn1cc2cc(-c3ccc(-c4ccc(C5CNC5)nn4)c(O)c3)ncc2n1 [Compound 44, 2-(6-(azetidin-3-yl)pyridazin-3-yl)-5-(2-methyl-2H-pyrazolo[3,4-c]pyridin-5-yl)phenol hydrochloride]"
16,500 to 1000,"Cn1cc2cc(-c3ccc(-c4ccc(C5CN(C6CCOC6)C5)nn4)c(O)c3)ccc2n1 (stereo not shown) [Compound 45, 5-(2-methyl-2H-indazol-5-yl)-2-{6-[1-(oxolan-3-yl)azetidin-3-yl]pyridazin-3-yl}phenol]"
17,500 to 1000,"CCN1CC(c2ccc(-c3ccc(-c4cc5cn(C)nc5cn4)cc3O)nn2)C1 [Compound 46, 2-[6-(1-ethylazetidin-3-yl)pyridazin-3-yl]-5-{2-methyl-2H-pyrazolo[3,4-c]pyridin-5-yl}phenol]"

row,Structure (SMILES),EC50 [nM]
1,"Cc1cn2nc(-c3ccc(-c4ccc(C5CNC5)nn4)c(O)c3)cc(C)c2n1 [Compound 3, 2-[6-(azetidin-3-yl)pyridazin-3-yl]-5-{2,8-dimethylimidazo[1,2-b]pyridazin-6-yl}phenol]",50 to 500
2,"Cc1cn2cc(-c3ccc(-c4ccc(C5CNC5)nn4)c(O)c3)cc(C)c2n1 [Compound 4, 2-(6-(azetidin-3-yl)pyridazin-3-yl)-5-(2,8-dimethylimidazo[1,2-a]pyridin-6-yl)phenol hydrochloride]",≥ 1000
3,"Cc1cn2cc(-c3ccc(-c4ccc(C5CNC5)nn4)c(O)c3)cc(C(F)(F)F)c2n1 [Compound 5, 2-[6-(azetidin-3-yl)pyridazin-3-yl]-5-[2-methyl-8-(trifluoromethyl)imidazo[1,2-a]pyridin-6-yl]phenol]",50 to 500
